Test results taken from US20060160197A1 (priority 2004, published 2006).

Tests used:
Assay type in all cases: physicochemical
[1] = Example 2 reactive solvent extraction, 70% Alamine 336/10% MIBK/20% kerosene, 50° C.; conditions: pH 2 to 3
Method: (§1) A variety of analytical methods can be employed to analyze the reactants and products produced using the present methods include HPLC, GC, ion selective electrodes, MS, NMR, etc. HPLC was used to measure glycolic acid and various related products. Briefly, samples are diluted with water (as needed to be within HPLC detection range) and mixed 1:1 with 0.2 M n-propanol in water (HPLC internal standard). HPLC Analytical Method: (BioRad HPX 87H ion exclusion column (BioRad, Hercules, Calif.), 300 mm×7.8 mm; 0.01 N H2SO4 mobile phase; 1.0 mL/min flow at 50° C.; 10 μL injection volume; RI detector and UV 210 nm, 20 min analysis time). HPLC Equipment: (Waters 2695 ‘Alliance’ Separations Module, 2410 Refractive Index Detector, 2487 Dual λ Absorbance Detector and Empower Pro Software (Waters Corp, Milford, Mass.).
Solvent Extraction Using Approximately 70% C8-C10 Trialkylamine in Combination with 10% Methyl Isobutyl Ketone and 20% Kerosene at 50° C.
Into a 4-mL glass reactor equipped with magnetic stir bar was placed 1 mL of a mixed solvent containing 70% (volume/volume) Alamine® 336 (Cognis), 10% (volume/volume) methyl isobutyl ketone (MIBK) and 20% (volume/volume) kerosene. The pH of an aqueous solution of ammonium glycolate (5 wt % to 40 wt %) was adjusted to pH 2 to 3 with concentrated sulfuric acid, then 1 mL of the resulting aqueous solution was added to the reactor. The resulting mixture was stirred for 30 minutes at 50° C.

[2] = Example 7 reactive solvent extraction, 50% Alamine 336/10% MIBK/40% kerosene, 75° C.; conditions: pH 2 to 3
Method: as §1
Solvent Extraction Using Approximately 50% C8-C10 Trialkylamine in Combination with 10% Methyl Isobutyl Ketone and 40% Kerosene at 75° C.
Into a 4-mL glass reactor equipped with magnetic stir bar was placed 1 mL of a mixed solvent containing 50% (volume/volume) Alamine® 336 (Cognis), 10% (volume/volume) methyl isobutyl ketone (MIBK) and 40% (volume/volume) kerosene. The pH of an aqueous solution of ammonium glycolate (5 wt % to 40 wt %) was adjusted to pH 2 to 3 with concentrated sulfuric acid, then 1 mL of the resulting aqueous solution was added to the reactor. The resulting mixture was stirred for 30 minutes at 75° C.

[3] = Example 13 reactive solvent extraction, 90% Alamine 336/10% toluene, 75° C.; conditions: pH 2 to 3
Method: as §1
Solvent Extraction Using Approximately 90% C8-C10 Trialkylamine in Combination with 10% Toluene at 75° C.
Into a 4-mL glass reactor equipped with magnetic stir bar was placed 1 mL of a mixed solvent containing 90% (volume/volume) Alamine® 336 (Cognis), 10% (volume/volume) toluene. The pH of an aqueous solution of ammonium glycolate (5 wt % to 40 wt %) was adjusted to pH 2 to 3 with concentrated sulfuric acid, then 1 mL of the resulting aqueous solution was added to the reactor. The resulting mixture was stirred for 30 minutes at 75° C.

[4] = Example 15 reactive solvent extraction, 90% Alamine 336/10% xylenes, 75° C.; conditions: pH 2 to 3
Method: as §1
Solvent Extraction Using Approximately 90% C8-C10 Trialkylamine in Combination with 10% Xylenes at 75° C.
Into a 4-mL glass reactor equipped with magnetic stir bar was placed 1 mL of a mixed solvent containing 90% (volume/volume) Alamine® 336 (Cognis), 10% (volume/volume) xylenes (mixed xylene isomers). The pH of an aqueous solution of ammonium glycolate (5 wt % to 40 wt %) was adjusted to pH 2 to 3 with concentrated sulfuric acid, then 1 mL of the resulting aqueous solution was added to the reactor. The resulting mixture was stirred for 30 minutes at 75° C.

[5] = Example 18 back extraction using water from loaded solvent (70% Alamine 336/10% MIBK/20% kerosene), 140° C.; conditions: back extraction into deionized water, 40 psig nitrogen
Method: as §1
Following the procedures in Example 1, into a 1-L cylindrical glass vessel on an extraction mixer (mix by rotating back and forth vertically) was placed 100 mL of a mixed solvent containing 70% (volume/volume) Alamine® 336 (Cognis), 10% (volume/volume) methyl isobutyl ketone (MIBK) and 20% (volume/volume) kerosene. The pH of an aqueous solution of ammonium glycolate (10 wt % to 50 wt %) was adjusted to approximately pH 2 to 3 with concentrated sulfuric acid, then 100 mL of the resulting aqueous solution was added to the extraction mixer. The resulting mixture was stirred for 60 minutes at room temperature. […] The organic phase was collected and used in the back extraction. This organic phase containing glycolic acid is referred as “loaded solvent” below.
Back Extraction Using Water from a Loaded Solvent of Approximately 70% C8-C10 Trialkylamine in Combination with 10% Methyl Isobutyl Ketone and 20% Kerosene
Into a 85-mL pressure reaction glass tube (pressure reaction vessel, from Andrews Glass Co.) equipped with magnetic stir bar and double dip tubes was placed 10 mL deionized water and 10 mL of the loaded solvent (see Example 16). The vessel was then closed, and the headspace purged with nitrogen. The resulting mixture was stirred for 60 minutes at 140° C. under 40 psig (˜275.8 kPa) nitrogen. The stirring was stopped and the two phases allowed to separate at 140° C., then the organic phase was sampled under pressure through the top dip tube into a Hoke cylinder, and aqueous phases was sampled under pressure through the bottom dip tube into another Hoke cylinder.

[6] = Example 21 back extraction with aqueous glycolic acid from loaded solvent (70% trialkylamine/30% toluene), 120° C.; conditions: 70% C8-C10 trialkylamine/30% toluene, 40 psig nitrogen
Method: as §1
Back Extraction from a Loaded Solvent of Approximately 70% C8-C10 Trialkylamine in Combination with 30% Toluene
The vessel was then closed, and the headspace purged with nitrogen. The resulting mixture was stirred for 60 minutes at 120° C. under 40 psig (˜275.8 kPa) nitrogen. The stirring was stopped and the two phases allowed to separate at 120° C., then the organic phase was sampled under pressure through the top dip tube into a Hoke cylinder, and aqueous phases was sampled under pressure through the bottom dip tube into another Hoke cylinder.

[7] = initial 3.6 wt % glycolic acid in aqueous phase
[8] = initial 8.5 wt % glycolic acid in aqueous phase
[9] = initial 12.1 wt % glycolic acid in aqueous phase
[10] = initial 16.1 wt % glycolic acid in aqueous phase
[11] = initial 20.6 wt % glycolic acid in aqueous phase
[12] = initial 25.1 wt % glycolic acid in aqueous phase
[13] = initial 29.1 wt % glycolic acid in aqueous phase
[14] = initial 32.8 wt % glycolic acid in aqueous phase

O=C(O)CO [glycolic acid]
Partition coefficient (wt % org./wt % aq.) [1, 7]: 0.32 | Partition coefficient (wt % org./wt % aq.) [1, 8]: 0.66 | Partition coefficient (wt % org./wt % aq.) [1, 9]: 0.63 | Partition coefficient (wt % org./wt % aq.) [1, 10]: 0.74 | Partition coefficient (wt % org./wt % aq.) [1, 11]: 0.69 | Partition coefficient (wt % org./wt % aq.) [1, 12]: 0.83 | Partition coefficient (wt % org./wt % aq.) [1, 13]: 0.68 | Partition coefficient (wt % org./wt % aq.) [1, 14]: 0.61 | Partition coefficient (wt % org./wt % aq.) [2, 7]: 0.38 | Partition coefficient (wt % org./wt % aq.) [2, 8]: 0.32 | Partition coefficient (wt % org./wt % aq.) [2, 9]: 0.35 | Partition coefficient (wt % org./wt % aq.) [2, 10]: 0.28 | Partition coefficient (wt % org./wt % aq.) [2, 11]: 0.33 | Partition coefficient (wt % org./wt % aq.) [2, 12]: 0.35 | Partition coefficient (wt % org./wt % aq.) [2, 13]: 0.35 | Partition coefficient (wt % org./wt % aq.) [2, 14]: 0.35 | Partition coefficient (wt % org./wt % aq.) [3, 7]: 0.51 | Partition coefficient (wt % org./wt % aq.) [3, 8]: 0.58 | Partition coefficient (wt % org./wt % aq.) [3, 9]: 0.67 | Partition coefficient (wt % org./wt % aq.) [3, 10]: 0.63 | Partition coefficient (wt % org./wt % aq.) [3, 11]: 0.65 | Partition coefficient (wt % org./wt % aq.) [3, 12]: 0.73 | Partition coefficient (wt % org./wt % aq.) [3, 13]: 0.75 | Partition coefficient (wt % org./wt % aq.) [3, 14]: 0.75 | Partition coefficient (wt % org./wt % aq.) [4, 7]: 0.55 | Partition coefficient (wt % org./wt % aq.) [4, 8]: 0.55 | Partition coefficient (wt % org./wt % aq.) [4, 9]: 0.66 | Partition coefficient (wt % org./wt % aq.) [4, 10]: 0.64 | Partition coefficient (wt % org./wt % aq.) [4, 11]: 0.65 | Partition coefficient (wt % org./wt % aq.) [4, 12]: 0.73 | Partition coefficient (wt % org./wt % aq.) [4, 13]: 0.75 | Partition coefficient (wt % org./wt % aq.) [4, 14]: 0.72 | Partition coefficient (wt % org./wt % aq.) ([5]; initial 3.9 wt % glycolic acid in loaded solvent): 0.48 | Partition coefficient (wt % org./wt % aq.) ([5]; initial 11.3 wt % glycolic acid in loaded solvent): 0.37 | Partition coefficient (wt % org./wt % aq.) ([5]; initial 16.0 wt % glycolic acid in loaded solvent): 0.34 | Partition coefficient (wt % org./wt % aq.) ([5]; initial 17.5 wt % glycolic acid in loaded solvent): 0.35 | Partition coefficient (wt % org./wt % aq.) ([6]; initial 20.0 wt % glycolic acid in aqueous phase, 14.2 wt % in loaded solvent): 0.54 | Partition coefficient (wt % org./wt % aq.) ([6]; initial 40.0 wt % glycolic acid in aqueous phase, 15.7 wt % in loaded solvent): 0.54
